This is an account of results in patent publication US8293513B2, “Histone deacetylase inhibitors” (Georgetown University, priority 2007, dated 2012).

Series [1] deals with HeLa nuclear extracts (histone deacetylase). Format: biochemical. The following applies: pan-HDAC inhibition assay. As for the experimental part: Reactions were stopped after 15 min with Fluor de Lys Developer. […] The reaction was performed in triplicate for each sample. Each point represents the mean±SD of replicates.
In another series the target is HDAC3 (Homo sapiens, UniProt O15379). Put plainly: HDAC isoform inhibition assay (Fluor de Lys, purified protein). In kind it is biochemical.
The next series has as its target HDAC2 (Homo sapiens, UniProt Q92769). The description is as above. Format: biochemical.
Another series concerns the target HDAC1 (Homo sapiens, UniProt Q13547). The description is as above. Format: biochemical.
The next series addresses T1, HDAC6 (Homo sapiens, UniProt Q9UBN7).
T1 sequence (Q9UBN7 1-1215): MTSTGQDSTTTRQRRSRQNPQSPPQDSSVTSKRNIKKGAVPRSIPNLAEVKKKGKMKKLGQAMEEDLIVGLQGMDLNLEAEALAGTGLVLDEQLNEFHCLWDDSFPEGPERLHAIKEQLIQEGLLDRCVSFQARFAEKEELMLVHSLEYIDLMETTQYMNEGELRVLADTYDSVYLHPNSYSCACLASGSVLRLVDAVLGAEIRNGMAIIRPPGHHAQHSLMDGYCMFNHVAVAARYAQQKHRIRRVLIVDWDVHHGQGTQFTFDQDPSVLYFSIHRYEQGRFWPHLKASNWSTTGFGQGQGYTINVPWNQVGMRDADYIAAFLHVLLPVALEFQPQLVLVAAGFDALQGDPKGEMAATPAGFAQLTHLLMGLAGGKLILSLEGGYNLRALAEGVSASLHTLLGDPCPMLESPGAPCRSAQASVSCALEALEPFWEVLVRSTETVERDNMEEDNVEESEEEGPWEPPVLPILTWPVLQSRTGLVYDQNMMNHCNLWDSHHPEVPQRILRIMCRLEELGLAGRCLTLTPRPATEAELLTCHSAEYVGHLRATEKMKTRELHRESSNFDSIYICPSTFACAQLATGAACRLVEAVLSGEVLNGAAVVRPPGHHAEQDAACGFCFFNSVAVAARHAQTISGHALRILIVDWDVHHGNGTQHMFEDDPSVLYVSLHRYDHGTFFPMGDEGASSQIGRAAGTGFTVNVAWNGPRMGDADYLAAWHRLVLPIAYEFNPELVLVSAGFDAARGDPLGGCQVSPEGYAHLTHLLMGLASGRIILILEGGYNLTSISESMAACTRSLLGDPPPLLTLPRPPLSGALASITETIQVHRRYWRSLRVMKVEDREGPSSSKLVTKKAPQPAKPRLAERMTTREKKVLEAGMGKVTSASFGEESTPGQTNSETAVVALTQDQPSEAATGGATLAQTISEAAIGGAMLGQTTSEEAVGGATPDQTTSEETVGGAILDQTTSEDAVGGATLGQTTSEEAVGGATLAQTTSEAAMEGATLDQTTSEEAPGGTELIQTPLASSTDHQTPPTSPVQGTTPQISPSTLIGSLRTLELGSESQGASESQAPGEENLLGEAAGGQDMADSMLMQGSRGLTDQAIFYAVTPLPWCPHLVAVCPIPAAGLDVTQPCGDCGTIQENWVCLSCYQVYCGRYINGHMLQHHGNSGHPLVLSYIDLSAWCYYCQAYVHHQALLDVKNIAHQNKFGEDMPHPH
Described as above. In kind it is biochemical.

A further series relates to A549 cells. Put plainly: Imaging of histone acetylation. Format: cell-based. The following applies: 20 μM, 60 minutes (FIG. 5), versus untreated control. As for the experimental part:
Images A, B, C and D show the cells after treatment with the histone deacetylase inhibitor (20 μM) for 60 minutes. […] Image C is the DIC image.

The subject of series [2] is C42 (androgen-independent prostate cancer). Put plainly: Cell growth inhibition (CellTiter 96 AQueous One, MTS). In kind it is cell-based. The conditions noted are these: C4-2; C42 cells, 48 hours; read-out: Proliferation IG50 C42. As for the experimental part:
(§1) The cell lines used were PC-3 (prostate cancer), C42 (androgen-independent prostate cancer), LNCap (androgen-dependent prostate cancer), SQ20B (squamous cell carcinoma), MCF7 (breast cancer) and MDA-231 (breast cancer).
(§2) Cells were seeded at 5,000 per well in […] of growing medium in 96-well tissue culture plates. At 24 hours after seeding, a solution of the compound or DMSO vehicle control were added to each well to a total volume of […] (three replicates per concentration), and incubated for 48 hours at 37° C. Growth inhibition was determined using CellTiter 96® AQueous One Solution Cell Proliferation according to manufacturer's instructions (Technical Bulletin: CellTiter 96® AQueous One Solution Cell Proliferation Assay. Instructions for Use of Products G3580, G3581 and G3582; Promega, Inc. Madison, Wis., Revised 4/2005), and the absorbance measured at 490 nm on a microplate reader. The CellTiter 96® AQueous One Solution Cell Proliferation Assay is a colorimetric method for determining the number of viable cells in proliferation, cytotoxicity or chemosensitivity assays and contains a tetrazolium compound [3-(4,5-dimethylthiazol-2-yl)-5-(3-carboxymethoxyphenyl)-2-(4-sulfophenyl)-2H-tetrazolium, inner salt; “MTS”] and an electron coupling reagent (phenazine ethosulfate; PES). The MTS tetrazolium compound (Owen's reagent) is bioreduced by cells into a colored formazan product that is soluble in tissue culture medium. Assays are performed by adding a small amount of the CellTiter 96® AQueous One Solution Reagent directly to culture wells, incubating for 1-4 hours and then recording the absorbance at 490 nm with a 96-well plate reader. The quantity of formazan product as measured by the absorbance at 490 nm is directly proportional to the number of living cells in culture.
(§3) The 50% growth inhibition (IG50) was calculated as the compound concentration required to reduce cell number by 50% compared with control.

Another series relates to MCF7 (breast cancer). Described as above. In kind it is cell-based. The following applies: Homo sapiens; MCF7 cells, 48 hours; read-out: Proliferation IG50 MCF7. As for the experimental part:
as §1, §2, §3

For a further series, the system named is PC-3 (prostate cancer). The description is as above. Format: cell-based. The following applies: Homo sapiens, PC3 cells, 48 hours, read-out: Proliferation IG50 PC3. As for the experimental part: as §1, §2, §3
For series [3], the system named is LNCap (androgen-dependent prostate cancer). Described as above. Format: cell-based. The conditions noted are these: Homo sapiens; LNCap cells, 48 hours; read-out: Proliferation IG50 LNCap. The procedure:
as §1, §2, §3

The test system of series [4] is SQ20B (squamous cell carcinoma). The series is described as above. Format: cell-based. The conditions noted are these: Homo sapiens; SQ20B cells, 48 hours; read-out: Proliferation IG50 SQ20B. The procedure:
as §1, §2, §3

In the next series the test system is MDA-231 (breast cancer). The description is as above. In kind it is cell-based. The conditions noted are these: Homo sapiens, MDA-MB-231; MDA-231 cells, 48 hours; read-out: Proliferation IG50 MDA-231. The procedure: as §1, §2, §3
Series [5] is described as follows: Emission and excitation spectra. Format: physicochemical. As for the experimental part: Measurement of the emission and excitation spectra for the compound of Example 1 was performed to confirm the corresponding range for fluorescent visualization in cancer cells and to confirm the fluorescent property of the compound.
A further series has as its system A549 (lung cancer) cells. Put plainly: Imaging of tubulin acetylation. The conditions noted are these: 20 μM, 60 minutes (FIG. 4), versus untreated control. Format: cell-based. The procedure: Images A, B, and C show the cells after treatment with the histone deacetylase inhibitor (20 μM) for 60 minutes. […] Image C is the DIC image, while image D is a merger of images A, B, and C.

For the next series, the target named is T2, HDAC8 (Homo sapiens, UniProt Q9BY41).
T2 sequence (Q9BY41 1-377): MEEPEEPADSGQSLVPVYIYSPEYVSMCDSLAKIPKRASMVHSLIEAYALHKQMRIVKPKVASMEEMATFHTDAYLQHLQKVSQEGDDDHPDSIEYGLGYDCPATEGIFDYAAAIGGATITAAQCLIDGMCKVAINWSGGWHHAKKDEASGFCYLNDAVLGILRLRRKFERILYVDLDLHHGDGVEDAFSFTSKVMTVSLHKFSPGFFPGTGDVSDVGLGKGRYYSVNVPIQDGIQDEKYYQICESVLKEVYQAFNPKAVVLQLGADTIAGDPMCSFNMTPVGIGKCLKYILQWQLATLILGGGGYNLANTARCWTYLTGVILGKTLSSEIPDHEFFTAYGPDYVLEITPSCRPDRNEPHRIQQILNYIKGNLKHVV
Put plainly: biochemical.

The next series relates to LNCap cells. Put plainly: Cell cycle distribution (propidium iodide, FACS). Format: cell-based. The conditions noted are these: 24 hours after adding the compound. As for the experimental part:
(§4) LNCap and PC-3 cells were incubated in the presence or absence of compound. The cells were harvested at the indicated time points after addition of compound then washed twice with cold phosphate-buffered saline. Cells (1-2×10^6) were resuspended in 0.5 ml of ice-cold phosphate-buffered saline, and single cell suspension was verified microscopically. The cell suspension was gradually mixed with ice-cold absolute ethanol to the final volume of 2.0 ml, and cooled on ice at least for 20 min before staining with propidium iodide. The cell cycle distributions were measured in a fluorescence-activated cell sorter from Becton Dickinson. DNA content was quantified using ModFit LT 3.0 software (Verity Software House, Inc.).

The test system of series [6] is PC-3 cells. Put plainly: Cell cycle distribution (propidium iodide, FACS). The conditions noted are these: PC-3, 24 hours after adding the compound. Format: cell-based. The procedure: as §4
Series [7] concerns PC-3 cells. Put plainly: Fluorescence imaging of compound localization in cells. In kind it is cell-based, human. The conditions noted are these: 20 μM. As for the experimental part: (§5) Human prostate cancer cell lines PC-3 and DU145 cells were plated down onto glass slides at a density of 500,000 per slide and incubated overnight. […] The slides were then washed three times with phosphate-buffered saline. The cells were then fixed with a 4% solution of formaldehyde for ten minutes, washed four times with phosphate-buffered saline and mounted. For slides with nuclear staining, cells were treated with propidium iodide (1:1000) for 4 minutes after fixation, washed four times with PBS and mounted.
(§6) Propidium Iodide was imaged with an excitation wavelength of 535 and an emission wavelength of 617. Images were taken at 63×.

The next series deals with DU145 cells. Described as above. Format: cell-based, human. The conditions noted are these: DU-145 cells, for 60 minutes (FIG. 2). As for the experimental part: as §5, §6
The next series addresses HDAC4 (Homo sapiens, UniProt P56524). The following applies: PC3 cells, 1 μM, 24 hours (FIG. 6).
Where [8] appears, read: HeLa nuclear extracts (Table 2), read-out: HDAC IC50.
[9] abbreviates: HeLa nuclear extracts (Table 3), read-out: pan-HDAC IC50.

Like-named read-outs stand apart in the source and are kept apart here.

Sequence of HDAC1 (Q13547 whole entry, species assumed): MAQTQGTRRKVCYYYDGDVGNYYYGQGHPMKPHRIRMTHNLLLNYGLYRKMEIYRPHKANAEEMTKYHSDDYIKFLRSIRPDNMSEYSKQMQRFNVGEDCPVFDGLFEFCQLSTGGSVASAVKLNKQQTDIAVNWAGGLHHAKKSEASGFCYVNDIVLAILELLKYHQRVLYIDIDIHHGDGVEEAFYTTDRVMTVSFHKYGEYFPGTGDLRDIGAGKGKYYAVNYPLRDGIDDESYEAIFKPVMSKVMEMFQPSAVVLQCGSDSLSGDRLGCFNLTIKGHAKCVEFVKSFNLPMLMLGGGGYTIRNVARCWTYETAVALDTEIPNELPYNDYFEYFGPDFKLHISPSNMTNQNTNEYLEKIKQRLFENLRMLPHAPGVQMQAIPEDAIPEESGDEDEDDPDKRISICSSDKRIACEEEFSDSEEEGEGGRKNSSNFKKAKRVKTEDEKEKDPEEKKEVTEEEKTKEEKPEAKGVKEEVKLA
Sequence of HDAC2 (Q92769 whole entry, species assumed): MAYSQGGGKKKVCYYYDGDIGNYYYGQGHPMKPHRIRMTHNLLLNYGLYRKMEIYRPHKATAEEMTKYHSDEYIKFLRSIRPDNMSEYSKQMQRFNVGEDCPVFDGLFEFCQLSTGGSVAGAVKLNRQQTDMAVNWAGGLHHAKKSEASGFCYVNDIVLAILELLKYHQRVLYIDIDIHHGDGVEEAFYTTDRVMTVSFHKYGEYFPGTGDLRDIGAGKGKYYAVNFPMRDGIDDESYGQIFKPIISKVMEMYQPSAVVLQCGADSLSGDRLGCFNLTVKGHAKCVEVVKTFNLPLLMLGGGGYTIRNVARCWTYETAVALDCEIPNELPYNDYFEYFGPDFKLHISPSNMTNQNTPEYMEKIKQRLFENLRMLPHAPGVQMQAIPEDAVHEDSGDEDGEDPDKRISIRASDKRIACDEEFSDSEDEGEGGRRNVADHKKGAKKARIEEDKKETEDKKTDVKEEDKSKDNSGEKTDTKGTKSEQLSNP
Sequence of HDAC3 (O15379 whole entry, species assumed, canonical isoform): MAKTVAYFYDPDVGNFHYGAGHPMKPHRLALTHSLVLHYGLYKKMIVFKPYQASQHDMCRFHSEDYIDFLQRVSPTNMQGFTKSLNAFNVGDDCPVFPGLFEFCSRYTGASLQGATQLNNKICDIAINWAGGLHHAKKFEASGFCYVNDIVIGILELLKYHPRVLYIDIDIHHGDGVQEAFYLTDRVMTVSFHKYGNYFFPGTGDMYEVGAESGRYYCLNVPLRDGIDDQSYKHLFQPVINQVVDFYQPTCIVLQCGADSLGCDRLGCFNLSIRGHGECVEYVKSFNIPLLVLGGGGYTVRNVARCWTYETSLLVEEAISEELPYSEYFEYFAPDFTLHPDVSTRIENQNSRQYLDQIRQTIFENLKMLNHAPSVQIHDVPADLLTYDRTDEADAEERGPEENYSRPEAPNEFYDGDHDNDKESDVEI
Sequence of HDAC3 (O75376 395-489 partner limits assumed, species assumed): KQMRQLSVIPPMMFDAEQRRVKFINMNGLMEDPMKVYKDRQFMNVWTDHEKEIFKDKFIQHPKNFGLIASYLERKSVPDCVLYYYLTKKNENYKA
Sequence of HDAC4 (P56524 whole entry): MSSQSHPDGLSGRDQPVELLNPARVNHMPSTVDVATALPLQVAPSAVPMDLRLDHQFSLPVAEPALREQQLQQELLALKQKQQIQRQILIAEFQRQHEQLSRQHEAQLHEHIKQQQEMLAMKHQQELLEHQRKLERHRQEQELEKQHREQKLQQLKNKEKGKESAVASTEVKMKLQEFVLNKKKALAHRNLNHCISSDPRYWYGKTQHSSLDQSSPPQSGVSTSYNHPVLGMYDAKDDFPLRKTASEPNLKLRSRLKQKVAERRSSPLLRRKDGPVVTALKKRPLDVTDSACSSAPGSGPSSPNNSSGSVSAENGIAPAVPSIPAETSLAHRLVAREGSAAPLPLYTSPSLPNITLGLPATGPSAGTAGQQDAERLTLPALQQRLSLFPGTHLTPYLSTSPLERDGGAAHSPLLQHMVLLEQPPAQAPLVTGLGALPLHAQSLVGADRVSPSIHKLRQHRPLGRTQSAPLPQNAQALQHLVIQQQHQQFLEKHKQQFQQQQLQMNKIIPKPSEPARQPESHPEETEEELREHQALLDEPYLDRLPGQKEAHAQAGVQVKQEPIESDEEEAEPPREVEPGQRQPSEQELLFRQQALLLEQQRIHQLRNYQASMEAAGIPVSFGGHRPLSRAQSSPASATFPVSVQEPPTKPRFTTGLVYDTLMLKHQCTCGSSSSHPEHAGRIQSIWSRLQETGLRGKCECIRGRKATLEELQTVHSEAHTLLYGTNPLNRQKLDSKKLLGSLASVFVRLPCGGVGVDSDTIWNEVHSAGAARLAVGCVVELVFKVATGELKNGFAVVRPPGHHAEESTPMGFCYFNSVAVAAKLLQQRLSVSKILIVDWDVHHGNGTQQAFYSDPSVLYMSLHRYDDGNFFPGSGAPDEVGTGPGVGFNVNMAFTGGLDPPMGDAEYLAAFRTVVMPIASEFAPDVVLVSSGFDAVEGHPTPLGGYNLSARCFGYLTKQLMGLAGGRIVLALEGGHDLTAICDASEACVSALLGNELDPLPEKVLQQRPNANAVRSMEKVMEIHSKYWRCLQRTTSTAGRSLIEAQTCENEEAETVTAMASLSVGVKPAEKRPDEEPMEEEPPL
Description for HDAC4: Human prostate cancer PC3 cells were cultured in Dulbecco's Modified Eagle's Medium (DMEM) with 5% serum at 37° C. over night. […] Control cells were incubated in the absence of test compound.
After 24 hours, the cells were washed with phosphate-buffered saline (1×) one time, and fixed with 4% percent of paraformaldehyde for 15 min. Non specific binding was blocked with 10% normal goat serum in phosphate-buffered saline containing 0.2% tween-20 (sigma aldrich P7949) for 1 hour. Cells were treated with mouse monoclonal anti-HDAC4 antibody (Sigma Aldrich H0163) 1:200 dilution in 5% goat serum in PBS for 1 hour at room temperature. The cells were washed three times with phosphate buffered saline (1×). […] The cells were washed with phosphate-buffered saline (1×) three times. Vecta shield mounting medium for florescence with DIPA (Vector laboratory H-1200) were loaded on the cells and covered with cover glass. The cells were then treated with HDAC4 antibody to visualize HDAC4 and with 4′,6-diamidino-2-phenylindole (DAPI) to visualize the nuclei.
Fluorescence microscopy was used to observe the immunohistostaining results.

Consider `CN(C)c1cccc2c(S(=O)(=O)NCCCCCCC(=O)NO)cccc12` [Example 3], for which the IC50 in series [1] (setting [8]) was 116 nM; in [1] (setting [9]), 116 nM; against HDAC3 it was 4890 nM; at HDAC2 it was 7400 nM; on HDAC1 it was 1290 nM; against HDAC6 it was 76.2 nM.
On to `CN(C)c1cccc2c(S(=O)(=O)NCCCCCCCC(=O)NO)cccc12` [Example 4], for which the IC50 in [1] (setting [8]) turned out to be 208 nM.
In the case of `CN(C)c1cccc2c(S(=O)(=O)NCCCCCC(=O)NO)cccc12` [Example 1, 6-(5-(Dimethylamino)naphthalene-1-sulfonamido)-N-hydroxyhexanamide], the IC50 in series [1] (setting [8]) worked out at 125 nM; in series [1] (setting [9]), 125 nM; in series [2] it was 1.91 nM; in the series on MCF7 (breast cancer) it was 9.2 nM; in the series on PC-3 (prostate cancer), 1.54 nM; in [3], 1.22 nM. The IC50 was determined as 6.42 nM in series [4]; 12.2 nM in the series on MDA-231 (breast cancer); 1120 nM on HDAC3; 2900 nM at HDAC8; 1380 nM at HDAC2; 956 nM against HDAC1. This compound also gave an IC50 against HDAC6 of 129 nM. In the series on A549 cells, the “Histone acetylation in the nucleus” value was “increased nuclear histone acetylation”. Moreover, the “Emiss (emission wavelength)” value in series [5] is 500 nm. Also, the “Exc (excitation wavelength)” value in series [5] is given as 320 nm. In addition, in the series on A549 (lung cancer) cells, the “Tubulin acetylation in the cytoplasm” value is reported as “increased tubulin acetylation”. Moreover, the “Cell cycle distribution G1” value is 85.23% with LNCap cells and 64.35% in the series with PC-3 cells [6]. Besides, the figures for the “Cell cycle distribution G2” value in the series on LNCap cells and in the series with PC-3 cells [6] were 5.59% and 15.74%, respectively. For the same compound, the “Cell cycle distribution S” value came out at 9.18% in the series on LNCap cells and 19.91% in the series with PC-3 cells [6]. In addition, in the series on PC-3 cells [7] (PC3 cells, 60 min (FIG. 3)), the “Co-localization with nuclei stained with propidium iodide” value is on record as “does not localize to nuclei”. Besides, the “Localization of compound fluorescence in cells” value with PC-3 cells [7] (PC-3 cells, 60 minutes (FIG. 2)) is on record as “present in the cytoplasm but not the nucleus of cells”; in the series with DU145 cells it was “seen fluorescing (green fluorescence) in the cytoplasm”.
For `O=C(CCCCCCC(=O)Nc1ccccc1)NO` [SAHA, suberoylanilide hydroxamic acid, reference compound], the “HDAC4 distribution between cytoplasm and nuclei” value at HDAC4 is “traps HDAC4 in the cytoplasm of the cells”. In the series with PC-3 cells [6], the “Cell cycle distribution G1” value was found to be 72.28%, the “Cell cycle distribution G2” value was found to be 13.39% and the “Cell cycle distribution S” value is on record as 14.33%.
Take `CN(C)c1cccc2c(S(=O)(=O)NCCCCC(=O)NO)cccc12` [Example 2]: the IC50 in [1] (setting [8]) was 287 nM.
